Details: mouse, in vivo, iv

Substance: Ac-WDLIQLIVSDGSDLIQLIVSD-NH2 [12B]
- half-life in blood: < 10 min

Source: article PMC7275043 (Nature Communications, 2020)
